Results from patent US7838496B2, “Template-fixed peptidomimetics as medicaments against HIV and cancer” (Polyphor AG/Ltd., priority 2003, dated 2010).
*1 amine or outer side, *2 acyl side, *3 side chain or, on linkers, in order; H or OH if unused. Where a SMILES comes first, the peptide text is derived from it. Bridges are numbered along the chain shown (N, C = ends). [ ]: non-standard residue; d: D form. NHCH2(1,3-C6H4)CH2CO = O=C(Cc1cccc(CN[*:1])c1)[*:2]; 2Nal = N[C@@H](Cc1ccc2ccccc2c1)C(=O)O; Cit = NC(=O)NCCC[C@H](N)C(=O)O

How the values were obtained:
Assay type in all cases: cell-based
in vitro = assay: in vitro
Method: The cytotoxicity of the peptides to HELA cells (Acc57) and COS-7 cells (CRL-1651) was determined using the MTl reduction assay [see ref. 6 and 7, below]. Briefly the method was as follows: HELA cells and COS-7 cells were seeded at 7.0·10^3 and, respectively, 4.5·10^3 cells per well and grown in 96-well microtiter plates for 24 hours at 37° C. at 5% CO2. At this point, time zero (Tz) was determined by MTT reduction (see below). The supernatant of the remaining wells was discarded and fresh medium and the peptides in serial dilutions of 12.5, 25 and 50 μM were pipeted into the wells. Each peptide concentration was assayed in triplicate. Incubation of the cells was continued for 48 hours at 37° C. at 5% CO2. Wells were then washed once with PBS and subsequently 100 μl MTT reagent (0.5 mg/mL in medium RPMI1640 and, respectively, DMEM) was added to the wells. This was incubated at 37° C. for 2 hours and subsequently the medium was aspirated and 100 μl isopropanol was added to each well. The absorbance at 595 nm of the solubilized product was measured (OD595peptide). For each concentration averages were calculated from triplicates. The percentage of growth was calculated as follows: (OD595peptide-OD595Tz-OD595Empty well)/(OD595Tz-OD595Empty well)×100% and was plotted for each peptide concentration.
The LC 50 values (Lethal Concentration, defined as the concentration that kills 50% of the cells) were determined for each peptide by using the trend line function of EXCEL (Microsoft Office 2000) for the concentrations (50, 25, 12.5 and 0 μM), the corresponding growth percentages and the value −50, (=TREND(C50:C0,%50:%0,−50))
(§1) All fine chemicals came from Merck (D)armstadt, Germany).

CXCR4 = molecular target: T1, CXCR4 (Homo sapiens, UniProt P61073); assay: Ca2+ assay: CXCR4 antagonizing activity of the peptides; details: CXCR4 transfected pre-B cells, Fura-2 fluorescence, 37° C.
T1 construct: expressed in transfected cells
Method: 2.2. Ca^2+− assay: CXCR4Antagonizing Activity of the Peptides
3-4 Mio CXCR4 transfected pre-B cells [see references 1, 2 and 3, below] per measurement were resuspended in 200 μl MSB (20 mM 4-(2-Hyddroxyethyl)-piperazin-1-ethansulfonic acid (HEPES), 136 mM NaCl, 4.8 mM KCl and 1 mM CaCl2) containing 5 mM D-Glucose and were loaded with 0.75 μl of 1 mM Fura-2-acetoxymethylester for 17 minutes at 37° C. The cells were washed free from Fura-2-AM with a platelet centrifuge and resuspended in 800 R1 MSB containing 5 mM D-Glucose. The peptides to be administered were diluted to a 100 fold end concentration in MSB/0.2% PPL, and 8 pl were injected. [Ca^2+ ]i-dependent fluorescence change in response to single or sequential stimulation with the peptide was recorded with a fluorimeter at an excitation wavelength of 340 nm and an end emission wavelength of 510 nm [see ref. 4, below]. Measurements were done under continuous stirring at 37° C. The signal intension was calibrated with 3 mM4 CaCl2/1 nM lonomycin (maximal fura-2-acetoxymethylester saturation) and […] MnCl2 (minimal Fura-2-acetoxymethylester saturation) and [Ca^2+]i-changes are presented in % fura-2-acetoxymethylester saturation.
MSB: 20 nmM HEPES, 136 mM NaCl, 4.8 mM KCl, 1 mM CaCl2.2H2O, pH 7.4; Osmolarity: 310 mOsm adjusted with NaOH or HCl, adjusted with dH2O or PBS.
MSB plus: 5 mM D-glucose in MSB (50 mg/50 mL).
Fura 2-acetoxymethylester: 1 mM stock solution in dimethylsulfoxide.

[1] = tested on: 'CCR5' cells / Hut/4-3 cells co-cultivation; assay: FIGS-Assay (co-cultivated cell cultures, beta-galactosidase/ONPG read-out); details: 48 hours of co-cultivation
Method: The assay was performed according to ref. 5, below. Stock dilutions of the peptides (10 mM) were prepared by dissolving in 10 mM Tris-HCl at room temperature. Stock solutions were kept at +4° C., light protected. Working dilutions were prepared extemporaneously by serial dilution in Phosphate Buffered Saline (PBS) and added in a final volume of 10 μL directly to the cell cultures. After 48 hours of co-cultivation the cultures were rinsed with PBS and then exposed to glutaraldehyde/formaldehyde (0.2%/2%) in PBS for five minutes. For photometric quantification the fixed cultures were subsequently incubated with ortho-nitro-phenyl-galactopyranoside (ONPG) as a O-galactosidase substrate, which was enzymatically converted into the chromophore ortho-nitrophenol (ONP). The read out is directly obtained by measuring optical density of wells at 405 nm in an IEMS 96 well-plate reader.
as §1

[2] = tested on: human red blood cells (hRBC); details: red cells of human, 1 h
Method: The peptides were tested for their hemolytic activity against human red blood cells (hRBC). Fresh hRBC were washed three times with phosphate buffered saline (PBS) by centrifugation for 10 min at 2000×g. Peptides at a concentration of 100 μM were incubated with 20% v/v hRBC for 1 hour at 37-C. The final erythrocyte concentration was approximately 0.9×10^9 cells per mL. A value of 0% resp. 100% cell lysis was determined by incubation of the hRBC in the presence of PBS alone and respectively 0.1% Triton X-100 in H2O. The samples were centrifuged and the supernatant was 20-fold diluted in PBS buffer and the optical density (OD) of the sample at […] was measured. The 100% lyses value (OD540H2O) gave an OD540 of approximately 1.3-1.8. Percent hemolysis was calculated as follows: (OD540peptide/OD540H2O)×100%.

T1 sequence (P61073 whole entry): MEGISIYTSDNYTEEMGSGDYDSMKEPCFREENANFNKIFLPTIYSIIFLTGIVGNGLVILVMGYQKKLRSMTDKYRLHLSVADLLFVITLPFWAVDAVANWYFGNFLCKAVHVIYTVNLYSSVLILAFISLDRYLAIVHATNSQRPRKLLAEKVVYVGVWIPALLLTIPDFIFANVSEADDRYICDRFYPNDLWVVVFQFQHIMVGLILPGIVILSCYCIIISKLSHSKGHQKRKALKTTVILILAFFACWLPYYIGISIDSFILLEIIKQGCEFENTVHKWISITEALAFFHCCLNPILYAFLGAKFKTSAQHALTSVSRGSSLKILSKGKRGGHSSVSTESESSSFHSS

SMILES | CC50 at 48 h (in vitro) [µM] | IC50 (CXCR4) [nM] | FIGS % inhibition at 200 nM [1] [%] | Hemolysis at 100 μM [2] [%] | FIGS % inhibition, At 300 nM ([1]; At 300 nM) | CC50 (in vitro) [µM]
N=C(N)NCCC[C@H](NC(=O)[C@@H]1CSSC[C@H](NC(=O)[C@H](Cc2ccc3ccccc3c2)NC(=O)[C@H](CCCNC(=N)N)NC(=O)[C@@H](N)CCCNC(=N)N)C(=O)N[C@@H](Cc2ccc(O)cc2)C(=O)N[C@@H](CCCNC(N)=O)C(=O)N[C@@H](CCCCN)C(=O)NCc2cccc(c2)CC(=O)N[C@@H](Cc2ccc(O)cc2)C(=O)N[C@@H](CCCNC(=N)N)C(=O)N[C@@H](CCCNC(N)=O)C(=O)N1)C(N)=O [Example 22] (H-RR[2Nal]CY[Cit]K[NHCH2(1,3-C6H4)CH2CO]YR[Cit]CR-NH2; disulfide 4-12) | 75 | 80.3 | 22.5 | 0.1 |  | 
N=C(N)NCCC[C@H](NC(=O)[C@@H]1CSSC[C@H](NC(=O)[C@H](Cc2ccc3ccccc3c2)NC(=O)[C@H](CCCNC(=N)N)NC(=O)[C@@H](N)CCCNC(=N)N)C(=O)N[C@@H](Cc2ccc(O)cc2)C(=O)N[C@@H](CCCNC(=N)N)C(=O)N2CCC[C@@H]2C(=O)N2CCC[C@H]2C(=O)N[C@@H](Cc2ccc(O)cc2)C(=O)N[C@@H](CCCNC(=N)N)C(=O)N1)C(N)=O [Example 5] (H-RR[2Nal]CYR[dP]PYRCR-NH2; disulfide 4-11; N-terminus assumed) | 67 | 132 | 16.4 | 0.7 |  | 
N=C(N)NCCC[C@H](NC(=O)[C@@H]1CSSC[C@H](NC(=O)[C@H](Cc2ccc3ccccc3c2)NC(=O)[C@H](CCCNC(=N)N)NC(=O)[C@@H](N)CCCNC(=N)N)C(=O)N[C@@H](Cc2ccc(O)cc2)C(=O)N[C@@H](CCCNC(N)=O)C(=O)N[C@@H](CCCCN)C(=O)N[C@H]2C[C@H]3C(=O)N[C@@H](CC(=O)N[C@@H](Cc4ccc(O)cc4)C(=O)N[C@@H](CCCNC(=N)N)C(=O)N[C@@H](CCCNC(N)=O)C(=O)N1)C(=O)N3C2)C(N)=O [Example 21] | 82 |  | 29.6 | 0.8 |  | 
N=C(N)NCCC[C@H](NC(=O)[C@@H]1CSSC[C@H](NC(=O)[C@H](Cc2ccc3ccccc3c2)NC(=O)[C@H](CCCNC(=N)N)NC(=O)[C@@H](N)CCCNC(=N)N)C(=O)N[C@@H](Cc2ccc(O)cc2)C(=O)N[C@@H](CCCNC(N)=O)C(=O)N[C@@H](CCCCN)C(=O)N2CCC[C@H]2C(=O)N2CCC[C@H]2C(=O)N[C@@H](Cc2ccc(O)cc2)C(=O)N[C@@H](CCCNC(=N)N)C(=O)N[C@@H](CCCNC(N)=O)C(=O)N1)C(N)=O [Example 24] (H-RR[2Nal]CY[Cit]KPPYR[Cit]CR-NH2; disulfide 4-13) | 67 | 100 | 17.1 | 1.1 |  | 
N=C(N)NCCC[C@H](NC(=O)[C@@H]1CSSC[C@H](NC(=O)[C@H](Cc2ccc3ccccc3c2)NC(=O)[C@H](CCCNC(=N)N)NC(=O)[C@@H](N)CCCNC(=N)N)C(=O)N[C@@H](Cc2ccc(O)cc2)C(=O)N[C@@H](CCCNC(N)=O)C(=O)N[C@@H](CCCCN)C(=O)N2CCC[C@@H]2C(=O)N2CCC[C@H]2C(=O)N[C@@H](Cc2ccc(O)cc2)C(=O)N[C@@H](CCCNC(=N)N)C(=O)N[C@@H](CCCNC(N)=O)C(=O)N1)C(=O)O [Example 20] (H-RR[2Nal]CY[Cit]K[dP]PYR[Cit]CR-OH; disulfide 4-13) | 138 | 15.5 |  | 0.2 | At 300 nM: 100% | 
N=C(N)NCCC[C@H](NC(=O)[C@@H]1CSSC[C@H](NC(=O)[C@H](Cc2ccc3ccccc3c2)NC(=O)[C@H](CCCNC(=N)N)NC(=O)[C@@H](N)CCCNC(=N)N)C(=O)N[C@@H](Cc2ccc(O)cc2)C(=O)N[C@@H](CCCCN)C(=O)N[C@H](CCCCN)C(=O)N2CCC[C@H]2C(=O)N[C@@H](Cc2ccc(O)cc2)C(=O)N[C@@H](CCCNC(N)=O)C(=O)N1)C(N)=O [Example 1] (H-RR[2Nal]CYK[dK]PY[Cit]CR-NH2; disulfide 4-11; N-terminus assumed) |  |  |  | 0.4 |  | 75
N=C(N)NCCC[C@H](NC(=O)[C@@H]1CSSC[C@H](NC(=O)[C@H](Cc2ccc3ccccc3c2)NC(=O)[C@H](CCCNC(=N)N)NC(=O)[C@@H](N)CCCNC(=N)N)C(=O)N[C@@H](Cc2ccc(O)cc2)C(=O)N[C@@H](CCCCN)C(=O)N[C@H](CCCCN)C(=O)N2CCC[C@H]2C(=O)N[C@@H](CCCNC(=N)N)C(=O)N[C@@H](CCCNC(N)=O)C(=O)N1)C(N)=O [Example 3] (H-RR[2Nal]CYK[dK]PR[Cit]CR-NH2; disulfide 4-11; N-terminus assumed) | 52 | 490 | 5.7 | 0.7 |  | 
N=C(N)NCCC[C@H](NC(=O)[C@@H]1CSSC[C@H](NC(=O)[C@H](Cc2ccc3ccccc3c2)NC(=O)[C@H](CCCNC(=N)N)NC(=O)[C@@H](N)CCCNC(=N)N)C(=O)N[C@@H](Cc2ccc(O)cc2)C(=O)N[C@@H](CCCNC(=N)N)C(=O)N[C@H](CCCCN)C(=O)N2CCC[C@H]2C(=O)N[C@@H](Cc2ccc(O)cc2)C(=O)N[C@@H](CCCNC(N)=O)C(=O)N1)C(N)=O [Example 2] (H-RR[2Nal]CYR[dK]PY[Cit]CR-NH2; disulfide 4-11) | 58 |  | 3.8 | 0.9 |  | 
N=C(N)NCCC[C@H](NC(=O)[C@@H]1CSSC[C@H](NC(=O)[C@H](Cc2ccc3ccccc3c2)NC(=O)[C@H](CCCNC(=N)N)NC(=O)[C@@H](N)CCCNC(=N)N)C(=O)N[C@@H](Cc2ccc(O)cc2)C(=O)N[C@@H](CCCCN)C(=O)N2CCC[C@@H]2C(=O)N2CCC[C@H]2C(=O)N[C@@H](Cc2ccc(O)cc2)C(=O)N[C@@H](CCCNC(=N)N)C(=O)N1)C(N)=O [Example 4] (H-RR[2Nal]CYK[dP]PYRCR-NH2; disulfide 4-11; N-terminus assumed) | > 300 | 848 | 26.0 | 0.3 |  | 
